Measured values published in patent US20240398943A1, “METHODS OF TREATING CANCER AND THE PHARMACEUTICAL COMPOSITIONS THEREOF” (SYSTIMMUNE, INC., priority 2021, published 2024).
“And” between values parts separate entries of the source, which are not always exact repeats. Equal entries are not always repeated. Where two headings read alike, the source gives them in different places.

What was measured:
[1] = tested on: HCC827_936 cells (EGFR exon19del and exon20ins) tumor xenograft
Procedure: (§1) Xenotransplantation of human cancer cells into immunocompromised mice is a gold-standard model used for pre-clinical oncology research and testing of anti-cancer therapies. In general, human cancer cell lines are injected below the skin of the mouse. […] The primary outcome parameter is growth inhibition by the drug, for which tumor size is measured over time, often externally with calipers. After the tumor reaches a certain size, the mice are euthanized. Drug effects on the tumor are further analyzed on a tissue level or molecular level (e.g., DNA, proteins). The primary outcome parameter of a xenograft model for testing drug efficacy is the growth of the treated tumor versus control. Typically, xenograft tumors grow from 100 mm^3 (6 mm diameter) to 1000 mm^3 (12 mm diameter) in several weeks. The growth rate often declines with larger tumor sizes, as opposed to exponential growth in (2D) in vitro experiments. Tumor growth inhibition varies per drug and implanted cell line. The effect of therapeutics can be directly on tumor cells, or indirectly via the microenvironment such as the inhibition of vessel formation, or both.
(§2) The experiment animals used were of Balb/c-nu mouse, female, ages 5^˜7 weeks, weight 17^˜21 g.
(§3) To establish xenograft model of NSCLC, two lung cancer cell lines expressing were used. Human lung adenocarcinoma cell line HCC827_936 was clonally derived from HCC827 cell line isolated from NSCLC tissue of a patient (ATCC). HCC827_936 cells express EGFR mutations of exon19del and exon20ins. The other lung cancer cell line, NCI-H1975 cells (ATCC), express the EGFR L858R/T790M double mutation.
(§4) Each of the three human cancer cell lines was cultured in RPMI1640 medium containing 10% fetal bovine serum, collected in the exponential growth phase, resuspended in PBS to a suitable concentration, and used for subcutaneous tumor implantation in mice.
When the tumor grew to an average volume of about 163 mm^3, randomly grouped according to tumor size and mouse weight to establish HCC827_936 xenograft model.
(§5) Tumor volume (mm^3) V=½×[…], where a represents the long diameter and b represents the short diameter. Relative tumor volume (RTV), RTV=Vt/V0, where V0 is the tumor volume at time 0 and Vt is the tumor volume after treatment at time t. The T/C value (%) is an indicator of the tumor response to treatment and is the most used evaluation indicator. T/C %=TRTV/CRTV×100%, where TRTV is treatment group average RTV and CRTV is control group average RTV. The T/C value (%) can also be calculated as T/C %=TTW/CTW×100%, where TTW is the average tumor weight at the end of the treatment group experiment and CTW is the average tumor weight at the end of the control group experiment.

[2] = tested on: NCI-H1975 cells (EGFR L858R/T790M) tumor xenograft
Procedure: as §1, §2, §3, §4
When the tumor grew to an average volume of about 170 mm^3, randomly grouped according to tumor size and mouse weight to establish […] NCI-H1975 xenograft model.
as §5

[3] = tested on: FaDu cells (wild type EGFR) tumor xenograft
Procedure: as §1, §2
To establish xenograft model of HNSCC, human head and neck cancer cells, FaDu cells, were transplanted into the mice to establish the xenograft model of HNSCC. FaDu is a cell line isolated from a hypopharyngeal tumor of a squamous cell carcinoma patient, which expresses wild type EGFR (ATCC).
as §4
When the tumor grew to an average volume of about 230 mm3, randomly grouped according to tumor size and mouse weight to establish human head and neck squamous cell carcinoma cells FaDu xenograft model.
as §5, with “(mm3)” for “(mm^3)”

[4] = Osimertinib 96 mg/kg/wk p.o. QD, Day 31
[5] = Osimertinib 96 mg/kg p.o. QD, Day 25

Molecule	T/C [1, 4] [%]	Tumor volume x ± SD [1, 4] [mm^3]	mortality rate ([1]; Osimertinib single-agent (96 mg/kg), before D31) [%]	mice died before D31 ([1]; female, Balb/c-nu, mouse, in vivo)	TGI ([1]; mouse, in vivo)	Tumor volume x ± SD ([1]; mouse, in vivo) [mm^3]	T/C [2, 5] [%]	Tumor volume x ± SD [2, 5] [mm^3]	TGI ([2]; mouse, in vivo)	Tumor volume x ± SD ([2]; mouse, in vivo) [mm^3]	mice died before D25 ([2]; mouse, in vivo)	body weight / weight loss ([3]; all dose groups of the treatment)	death of mice before the end of the experiment ([3]; all dose groups of the treatment, 5 mice per group)	mortality rate ([3]; paclitaxel 20.6 + carboplatin 28 mg/kg i.v. QW) [%]	mice with severe weight loss (>20%) before death ([3]; paclitaxel 20.6 + carboplatin 28 mg/kg i.v. QW, of the 4 mice that died)	TGI ([3]; paclitaxel […] + carboplatin 28 mg/kg i.v. QW) [%]
C=CC(=O)Nc1cc(Nc2nccc(-c3cn(C)c4ccccc34)n2)c(OC)cc1N(C)CCN(C)C [Osimertinib]	45.1	344.53	60	3	54.89% and 54.9%	344.5 ± 23.6	4.7	75.02	95.35% and 95.4%	75.0 ± 60.3	no mouse died	–	–	–	–	–
paclitaxel+carboplatin	–	–	–	–	–	–	–	–	–	–	–	fluctuated significantly	4	80	3	56.16
